Data: US9409952B2, “Peptide-compound cyclization method” (Chugai Seiyaku Kabushiki Kaisha, priority 2011, dated 2016)
Like-named read-outs stand apart in the source and are kept apart here. Starred links: 1 amine or outer side, 2 acyl side, 3 side chain; linkers in the order of their positions; H or OH if unused. Positions of bridges follow the written chain, without caps; N, C: chain ends. Non-standard residues stand in square brackets, D forms with d. Residues, ends and D or L forms follow the SMILES beside them. *: point of attachment. NMeF = CN[C@@H](Cc1ccccc1)C(=O)O; NMeGABA = CN(CCCC(=O)[*:2])[*:1]; NMeI = CC[C@H](C)[C@H](NC)C(=O)O; NMeβAla = CN(CCC(=O)[*:2])[*:1]; NMeL = CN[C@@H](CC(C)C)C(=O)O; NMeV = CN[C@H](C(=O)O)C(C)C; NMeA = CN[C@@H](C)C(=O)O; Piperidide = C1CCN(*)CC1; dNMeA = CN[C@H](C)C(=O)O; β3hA = C[C@H](N)CC(=O)O; Sar = CNCC(=O)O; tBu = CC(C)(C)*

Key:
[1] = PAMPA (parallel artificial membrane permeability assay); assay type: in vitro ADME; details: PAMPA
Method in brief: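 Artificial membrane was 10% (w/v) egg lecithin plus 0.5% (w/v) cholesterol in dodecane on a PVDF filter. A 10 mM DMSO stock was added at 0.5% (v/v) to donor buffer (50 mM MOPSO, pH 6.5, 5.0% glycocholic acid). After 18 h at 37 °C, LC/MS or LC/UV gave donor and acceptor levels for Pe.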

[2] = Metabolic stability in human hepatic microsome; assay type: in vitro ADME; details: microsomes
[3] = membrane permeation rate (Pe), 50 mM MOPSO buffer pH 6.5 with 5.0% glycocholic acid, 37° C., 18 hours, read-out: iPAMPA Pe
[4] = pH 7.4, human hepatic microsome, NADPH(+), read-out: CL NADPH(+)

SMILES	Papp at 18 hours, 50 µM ([1]; pH 6.5) [×10⁻⁶ cm/s]	microsomal CLint at 1 uM ([2]; human, pH 7.4, CL NADPH(+)) [µL/min/mg]	Papp at 18 hours, 50 µM [1, 3] [×10⁻⁶ cm/s]	microsomal CLint at 1 uM [2, 4] [µL/min/mg]
CC(C)C[C@H]1C(=O)N[C@@H](Cc2ccccc2)C(=O)N(C)[C@@H](C(C)C)C(=O)N[C@@H]([C@@H](C)O)C(=O)N[C@H](C(=O)N(C)[C@@H](Cc2ccccc2)C(=O)N(C)[C@@H](Cc2ccccc2)C(=O)N[C@@H](C)C(=O)N2CCCCC2)CC(=O)N(C)CCC(=O)N[C@@H](C(C)C)C(=O)N(C)[C@@H](CC(C)C)C(=O)N(C)[C@@H](Cc2ccccc2)C(=O)NCC(=O)N1C [DP-298] ([NMeβAla]V[NMeL][NMeF]G[NMeL]F[NMeV]TD[NMeF][NMeF]A-Piperidide; lactam N-10)	7	39		
CC(C)C[C@@H]1NC(=O)[C@H]([C@@H](C)O)NC(=O)[C@H](CC(C)C)N(C)C(=O)[C@H](C)N(C)C(=O)[C@H](Cc2ccccc2)N(C)C(=O)[C@H](Cc2ccccc2)NC(=O)[C@H](CC(C)C)N(C)C(=O)CCN(C)C(=O)C[C@@H](C(=O)N(C)[C@@H](Cc2ccccc2)C(=O)N[C@@H](C)C(=O)N2CCCCC2)NC(=O)[C@H](CC(C)C)N(C)C1=O [DP-351] ([NMeβAla][NMeL]F[NMeF][NMeA][NMeL]TL[NMeL]D[NMeF]A-Piperidide; lactam N-10)			63	51
CC[C@H](C)[C@@H]1NC(=O)[C@H](Cc2ccccc2)N(C)C(=O)[C@H](C)N(C)C(=O)[C@H]([C@@H](C)O)NC(=O)[C@@H](C)N(C)C(=O)C[C@@H](C(=O)N2CCCCC2)NC(=O)[C@H](CC(C)C)N(C)C(=O)[C@H](C)N(C)C(=O)[C@H](Cc2ccccc2)NC(=O)[C@H](C(C)C)N(C)C(=O)[C@@H]2CCCN2C1=O [DP-164] ([dNMeA]T[NMeA][NMeF]IP[NMeV]F[NMeA][NMeL]D-Piperidide; lactam N-11)	30	253		
CC[C@H](C)[C@H]1C(=O)N[C@@H](COC(C)(C)C)C(=O)N(C)[C@@H](Cc2ccccc2)C(=O)N(C)[C@@H](C(C)C)C(=O)N[C@@H](C)CC(=O)N(C)[C@@H](C)C(=O)N(C)[C@@H](Cc2ccccc2)C(=O)N[C@@H](CC(C)C)C(=O)N(C)[C@@H](CC(C)C)C(=O)N[C@@H]([C@@H](C)O)C(=O)N(C)CC(=O)N1C [DP-771] (cyclo(L[NMeL]T[Sar][NMeI]S(tBu)[NMeF][NMeV][β3hA][NMeA][NMeF]))	47	228		
CC[C@H](C)[C@@H]1NC(=O)[C@H](CC(C)C)N(C)C(=O)CN(C)C(=O)[C@H]([C@@H](C)O)NC(=O)[C@H](C)N(C)C(=O)[C@H](Cc2ccccc2)NC(=O)[C@H](CC(C)C)N(C)C(=O)[C@H](C)N(C)C(=O)C[C@@H](C(=O)N(C)[C@@H](Cc2ccccc2)C(=O)N(C)[C@@H](Cc2ccccc2)C(=O)N[C@@H](C)C(=O)N2CCCCC2)NC(=O)[C@H](C(C)C)N(C)C1=O [DP-459] ([NMeA][NMeL]F[NMeA]T[Sar][NMeL]I[NMeV]D[NMeF][NMeF]A-Piperidide; lactam N-10)			19	143
CC[C@H](C)[C@H]1C(=O)N(C)[C@@H](CC(C)C)C(=O)N[C@H](C(=O)N2CCCCC2)CC(=O)N(C)CCCC(=O)N[C@@H]([C@@H](C)O)C(=O)N(C)[C@@H](C)C(=O)N(C)[C@@H](Cc2ccccc2)C(=O)N(C)[C@@H](Cc2ccccc2)C(=O)N(C)[C@@H](CC(C)C)C(=O)NCC(=O)N1C [DP-262] ([NMeGABA]T[NMeA][NMeF][NMeF][NMeL]G[NMeI][NMeL]D-Piperidide; lactam N-10)			38	94
CC(C)C[C@H]1C(=O)N(C)[C@@H](C)C(=O)N(C)[C@@H](CC(C)C)C(=O)N[C@H](C(=O)N2CCCCC2)CC(=O)N(C)[C@@H](C)C(=O)N(C)[C@@H](Cc2ccccc2)C(=O)N[C@@H]([C@@H](C)O)C(=O)N(C)[C@@H](C)C(=O)N(C)[C@@H](CC(C)C)C(=O)NCC(=O)N1C [DP-489] ([NMeA][NMeF]T[NMeA][NMeL]G[NMeL][NMeA][NMeL]D-Piperidide; lactam N-10)			24	59
CC(C)C[C@H]1C(=O)N(C)[C@@H](Cc2ccccc2)C(=O)NCC(=O)N[C@@H](C)CC(=O)N(C)CCCC(=O)N[C@@H]([C@@H](C)O)C(=O)N(C)[C@@H](C)C(=O)N(C)[C@@H](Cc2ccccc2)C(=O)N[C@@H](COC(C)(C)C)C(=O)N1C [DP-785] (cyclo(G[β3hA][NMeGABA]T[NMeA][NMeF]S(tBu)[NMeL][NMeF]))	29	193		
CC(C)C[C@H]1C(=O)N(C)[C@@H](Cc2ccccc2)C(=O)N[C@H](C(=O)N2CCCCC2)CC(=O)N[C@H](C(C)C)C(=O)N[C@@H](C)C(=O)N[C@@H]([C@@H](C)O)C(=O)N(C)[C@@H](C)C(=O)N[C@@H](Cc2ccccc2)C(=O)N1C [DP-526] ([dV]AT[NMeA]F[NMeL][NMeF]D-Piperidide; lactam N-8)			14	49
